From patent publication US6472348B1, “Pyridone derivatives and herbicides” (Kumiai Chemical Industry Co., Ltd., priority 1996, dated 2002)

Legend:
[1] = test system: barnyardgrass (Ec); test: Test Example 1: herbicidal effects by paddy field soil treatment; format: in vivo; conditions: 100 g of the active ingredient per 10 ares, 21st day after the application, index 0-5 of Table 47;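 further: grade of growth control; 5 = at least 90%; 4 = 70 to 90%; 3 = 50 to 70%; 2 = 30 to 50%; 1 = 10 to 30%; 0 = under 10%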
How it was run: (§1)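 Scoring of herbicidal effect came 21 days after application of 100 g active ingredient per 10 ares to flooded (3 cm) paddy-soil pots sown with barnyardgrass, monochoria and bulrush, kept in a greenhouse.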

[2] = test system: bulrush (Sc); test: as above; format: in vivo; conditions: 100 g of the active ingredient per 10 ares, 21st day after the application, index 0-5 of Table 47;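 further: grade of growth control; 5 = at least 90%; 4 = 70 to 90%; 3 = 50 to 70%; 2 = 30 to 50%; 1 = 10 to 30%; 0 = under 10%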
How it was run: as §1

[3] = test system: monochoria (Mo); test: as above; format: in vivo; conditions: 100 g of the active ingredient per 10 ares, 21st day after the application, index 0-5 of Table 47;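 further: grade of growth control; 5 = at least 90%; 4 = 70 to 90%; 3 = 50 to 70%; 2 = 30 to 50%; 1 = 10 to 30%; 0 = under 10%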
How it was run: as §1

[4] = test system: soybean (Gl); test: Test Example 6: crop plant selectivity by upland field soil treatment (soybean), phytotoxicity; format: in vivo; parameters: scale not given here; conditions: 21st day after application
How it was run: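 Soybean and weeds sown in sand-filled pots and covered with soil, then treated by soil application. Plants grown in a greenhouse, with herbicidal effect and crop phytotoxicity scored on day 21 after application against a fixed rating scale.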

[5] = test system: soybean (Gl); test: Test Example 10: crop plant selectivity by upland field foliage treatment (soybean), phytotoxicity; conditions: dose 1.6 g ai/10a, 14th day after treatment
Protocol: (§2) (Test on Crop Plant Selectivity by Upland Field Foliage Treatment)
(§3) In a plastic pot (surface area: 600 cm^2) filled with sand, soybean (Gl), pale smartweed (Po), slender amaranth (Am), common lambsquarters (Ch) and China jute (Ab) were sown and cultured in a green house for 2 weeks. […] The plants were then cultured in a green house, and the evaluation of the herbicidal effects and phytotoxicity was conducted on the 14th day after the treatment in accordance with the standards as identified in Table 47.

[6] = test system: slender amaranth (Am); test: Test Example 10: crop plant selectivity by upland field foliage treatment (soybean), herbicidal effects; format: in vivo; conditions: dose 1.6 g ai/10a, 14th day after treatment
Protocol: as §2, §3

[7] = test system: corn (Ze); test: Test Example 11: crop plant selectivity by upland field foliage treatment (corn), phytotoxicity; conditions: dose 1.6 g ai/10a
How it was run: (§4)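 Corn with pale smartweed, slender amaranth, common lambsquarters and China jute sown in sand-filled pots and grown 2 weeks in a greenhouse before foliage treatment. Herbicidal effect and crop phytotoxicity scored on day 14 after treatment against a rating standard.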

[8] = test system: China jute (Ab); test: Test Example 11: crop plant selectivity by upland field foliage treatment (corn), herbicidal effects; format: in vivo; parameters: scale not given here; conditions: dose 1.6 g ai/10a
How it was run: as §4

[9] = test system: common lambsquarters (Ch); test: as above; format: in vivo; parameters: scale not given here; conditions: dose 1.6 g ai/10a
How it was run: as §4

[10] = test system: pale smartweed (Po); test: as above; format: in vivo; parameters: scale not given here; conditions: dose 1.6 g ai/10a
How it was run: as §4

[11] = upland field foliage treatment, 14th day after treatment
[12] = upland field foliage treatment (corn test), 14th day after treatment

| SMILES | Herbicidal effects Ec [1] | Herbicidal effects Sc [2] | Herbicidal effects Mo [3] | Phytotoxicity Gl ([4]; dose 6.3 g ai/10a) | Phytotoxicity Gl [5] | Herbicidal effects Am [6] | Phytotoxicity Ze [7, 11] | Herbicidal effects Ab [8, 12] | Herbicidal effects Ch [9, 12] | Herbicidal effects Po [10, 12] | Phytotoxicity Ze ([7]; corn, foliage treatment, evaluated on 14th day after treatment, index per Table 47) | Herbicidal effects Ab ([8]; China jute, foliage treatment, evaluated on 14th day after treatment, index per Table 47) | Herbicidal effects Ch ([9]; common lambsquarters, foliage treatment, evaluated on 14th day after treatment, index per Table 47) | Herbicidal effects Po ([10]; pale smartweed, foliage treatment, evaluated on 14th day after treatment, index per Table 47) | melting point [°C] | Phytotoxicity Gl ([4]; dose 1.6 g ai/10a) |
| --- | --- | --- | --- | --- | --- | --- | --- | --- | --- | --- | --- | --- | --- | --- | --- | --- |
| Cn1c(C(F)(F)F)ccc(-c2cc(OCCCl)c(Cl)cc2F)c1=O [1-171] | 5 | 5 | 5 | 1 | 2 | 5 | 1 | 5 | 5 | 5 | – | – | – | – | – | – |
| CCON=Cc1cc(-c2ccc(C(F)(F)F)n(C)c2=O)c(F)cc1Cl [Compound 1-187] | 5 | 5 | 5 | 1 | 2 | 5 | 2 | 5 | 5 | 5 | – | – | – | – | – | – |
| CSCOc1cc(-c2ccc(C(F)(F)F)n(C)c2=O)c(F)cc1Cl [Compound 1-208] | 5 | 5 | 5 | 2 | 2 | 5 | 2 | 5 | 5 | 5 | – | – | – | – | – | – |
| CCCc1cc2c(-c3ccc(C(F)(F)F)n(C)c3=O)c(F)cc(Cl)c2o1 [Compound 4-3] | 5 | 5 | 5 | 1 | 2 | 5 | 2 | 5 | 5 | 5 | – | – | – | – | – | – |
| CCc1cc2c(Cl)cc(F)c(-c3ccc(C(F)(F)F)n(C)c3=O)c2o1 [Compound 5-2] | 5 | 5 | 5 | 1 | 2 | 5 | – | – | – | – | 2 | 5 | 5 | 5 | – | – |
| Cn1c(C(F)(F)F)ccc(-c2cc(C#N)c(Cl)cc2F)c1=O [Compound No. 1-119, 3-(4-chloro-5-cyano-2-fluorophenyl)-1-methyl-6-trifluoromethyl-2(1H)-pyridone] | 5 | 5 | 5 | 2 | 2 | 5 | 2 | 4 | 5 | 5 | – | – | – | – | 180 to 181 | – |
| COCc1cc2c(-c3ccc(C(F)(F)F)n(C)c3=O)c(F)cc(Cl)c2o1 [Compound No. 4-4, 3-(7-chloro-5-fluoro-2-methoxymethylbenzofuran-4-yl)-1-methyl-6-trifluoromethyl-2-(1H)-pyridone] | 5 | 5 | 5 | 2 | – | – | 2 | 5 | 5 | 5 | – | – | – | – | 136 to 137 | – |
| Cn1c(C(F)(F)F)ccc(-c2c(F)cc(Cl)c3oc(CO)cc23)c1=O [Compound No. 4-5, 3-(7-chloro-5-fluoro-2-hydroxymethylbenzofuran-4-yl)-1-methyl-6-trifluoromethyl-2-(1H)-pyridone] | 5 | 5 | 5 | 2 | – | – | 1 | 5 | 5 | 5 | – | – | – | – | 145 to 147 | – |
| Cn1c(C(F)(F)F)ccc(-c2c(F)cc(Cl)c3occc23)c1=O [Compound No. 4-28, 3-(7-chloro-5-fluorobenzofuran-4-yl)-1-methyl-6-trifluoromethyl-2-(1H)-pyridone] | 5 | 5 | 5 | – | – | – | 2 | 5 | 5 | 5 | – | – | – | – | 178 to 179 | 2 |
| Cn1cc(-c2cc(Oc3ccccc3)c(Cl)cc2F)c(=O)cc1C(F)(F)F [Compound No. 6-19, 5-(4-chloro-2-fluoro-5-phenoxyphenyl)-1-methyl-2-trifluoromethyl-4(1H)-pyridone] | 5 | 5 | 5 | 0 | – | – | – | – | – | – | – | – | – | – | 159 to 161 | 0 |
